How the values were obtained:
Rattus norvegicus [1] = assay: Induction of diuresis in Rattus norvegicus albino (rat) assessed as total urinary output at 20 mg/kg, po measured at 5-18 hr after drug administration by standard Lipschitz method (reference value: 1.26 +/-0.049 ml); assay type: functional, Urine
Rattus norvegicus [2] = assay: Induction of diuresis in Rattus norvegicus albino (rat) assessed as urinary Na+ excretion at 20 mg/kg, po measured at 5-18 hr after drug administration by standard Lipschitz method (reference value: 0.65+/-0.006 mEq/L); assay type: functional, Urine
Rattus norvegicus [3] = assay: Induction of diuresis action in Rattus norvegicus albino (rat) assessed as urinary excretion at 20 mg/kg, po measured at 5-18 hr after drug administration by standard Lipschitz method against untreated control (reference value: 1 no unit); assay type: functional, Urine
Rattus norvegicus [4] = assay: Induction of diuresis in Rattus norvegicus albino (rat) assessed as urinary K+ excretion at 20 mg/kg, po measured at 0-5 hr after drug administration by standard Lipschitz method (reference value: 0.46 +/-0.006 mEq/L); assay type: functional, Urine
Rattus norvegicus [5] = assay: Induction of diuresis action in Rattus norvegicus albino (rat) assessed as urinary excretion at 20 mg/kg, po measured at 0-5 hr after drug administration by standard Lipschitz method against untreated control (reference value: 1 no unit); assay type: functional, Urine
Rattus norvegicus [6] = assay: Induction of diuresis activity in Rattus norvegicus albino (rat) assessed as urinary excretion at 20 mg/kg, po measured at 5-18 hr after drug administration by standard Lipschitz method against frusemide-treated control (reference value: 0.2 no unit); assay type: functional, Urine
Rattus norvegicus [7] = assay: Induction of diuresis in Rattus norvegicus albino (rat) assessed as urinary Na+ excretion at 20 mg/kg, po measured at 0-5 hr after drug administration by standard Lipschitz method (reference value: 0.90 +/-0.003 mEq/L); assay type: functional, Urine
Rattus norvegicus [8] = assay: Induction of diuresis in Rattus norvegicus albino (rat) assessed as urinary excretion at 20 mg/kg, po measured at 0-5 hr after drug administration by standard Lipschitz method (reference value: 98.40%); assay type: functional, Urine
Rattus norvegicus [9] = assay: Induction of diuresis activity in Rattus norvegicus albino (rat) assessed as urinary excretion at 20 mg/kg, po measured at 0-5 hr after drug administration by standard Lipschitz method against frusemide-treated control (reference value: 0.5 no unit); assay type: functional, Urine
Rattus norvegicus [10] = assay: Induction of diuresis in Rattus norvegicus albino (rat) assessed as normal saline intake at 20 mg/kg, po measured at 5-18 hr after drug administration by standard Lipschitz method (reference value: 2.50 +/-0.036 ml); assay type: functional
Rattus norvegicus [11] = assay: Induction of diuresis in Rattus norvegicus albino (rat) assessed as normal saline intake at 20 mg/kg, po measured at 0-5 hr after drug administration by standard Lipschitz method (reference value: 2.50 +/-0.036 ml); assay type: functional
Rattus norvegicus [12] = assay: Induction of diuresis in Rattus norvegicus albino (rat) assessed as urinary excretion at 20 mg/kg, po measured at 5-18 hr after drug administration by standard Lipschitz method (reference value: 50.4%); assay type: functional, Urine
Rattus norvegicus [13] = assay: Induction of diuresis in Rattus norvegicus albino (rat) assessed as urinary Cl- excretion at 20 mg/kg, po measured at 5-18 hr after drug administration by standard Lipschitz method (reference value: 0.38 +/-0.011 mEq/L); assay type: functional, Urine
Rattus norvegicus [14] = assay: Induction of diuresis in Rattus norvegicus albino (rat) assessed as urinary K+ excretion at 20 mg/kg, po measured at 5-18 hr after drug administration by standard Lipschitz method (reference value: 0.22 +/-0.004 mEq/L); assay type: functional, Urine
Rattus norvegicus [15] = assay: Induction of diuresis in Rattus norvegicus albino (rat) assessed as total urinary output at 20 mg/kg, po measured at 0-5 hr after drug administration by standard Lipschitz method (reference value: 2.46 +/-0.125 ml); assay type: functional, Urine
Rattus norvegicus [16] = assay: Induction of diuresis in Rattus norvegicus albino (rat) assessed as urinary Cl- excretion at 20 mg/kg, po measured at 0-5 hr after drug administration by standard Lipschitz method (reference value: 0.46 +/-0.005 mEq/L); assay type: functional, Urine

Row | Structure (SMILES) | Activity (Rattus norvegicus [1]) [mL] | Activity (Rattus norvegicus [2]) [mEq/L] | Ratio (Rattus norvegicus [3]) | Activity (Rattus norvegicus [4]) [mEq/L] | Ratio (Rattus norvegicus [5]) | Ratio (Rattus norvegicus [6]) | Activity (Rattus norvegicus [7]) [mEq/L] | Activity (Rattus norvegicus [8]) [%] | Ratio (Rattus norvegicus [9]) | Activity (Rattus norvegicus [10]) [mL] | Activity (Rattus norvegicus [11]) [mL] | Activity (Rattus norvegicus [12]) [%] | Activity (Rattus norvegicus [13]) [mEq/L] | Activity (Rattus norvegicus [14]) [mEq/L] | Activity (Rattus norvegicus [15]) [mL] | Activity (Rattus norvegicus [16]) [mEq/L]
1 | COc1cc(C2CC(c3ccc(O)cc3)=NN2C(=O)COc2ccc(C)cc2)ccc1OCC(=O)O (configuration not stated) | 0.33 | 0.12 | 0.22 | 0.25 | 0.6 | 0.04 | 0.45 | 62.84 | 0.3 | 2.88 | 2.88 | 11.45 | 0.07 | 0.19 | 1.81 | 0.24
2 | COc1cc(C2CC(c3ccccc3)=NN2C(=O)c2ccccc2O)ccc1OCC(=O)O (configuration not stated) | 0.2 | 0.16 | 0.16 | 0.16 | 0.5 | 0.03 | 0.35 | 49.57 | 0.25 | 2.34 | 2.34 | 8.54 | 0.06 | 0.12 | 1.16 | 0.16
3 | COc1cc(C2CC(c3ccc(Cl)cc3)=NN2C(=O)c2ccc(Cl)cc2)ccc1OCC(=O)O (configuration not stated) | 7.43 | 3.26 | 5.56 | 1.55 | 2.2 | 1.12 | 2.82 | 226.96 | 1.11 | 2.67 | 2.67 | 278 | 1.77 | 1.76 | 6.06 | 1.94
4 | NS(=O)(=O)c1cc(C(=O)O)c(NCc2ccco2)cc1Cl [FUROSEMIDE] | 6.81 | 3.11 | 4.94 | 1.27 | 1.97 | 1 | 2.44 | 194.54 | 1 | 2.75 | 2.75 | 247.63 | 1.83 | 3.11 | 5.35 | 1.24
5 | COc1cc(C2CC(c3ccc(Cl)cc3)=NN2C(=O)COc2ccccc2)ccc1OCC(=O)O (configuration not stated) | 10.17 | 3.82 | 6.92 | 1.74 | 2.5 | 1.39 | 3.26 | 247.61 | 1.26 | 2.94 | 2.94 | 345.91 | 1.77 | 1.96 | 7.28 | 1.66
6 | COc1cc(C2CC(c3ccc(Cl)cc3)=NN2C(=O)Cc2ccccc2)ccc1OCC(=O)O (configuration not stated) | 6.23 | 2.86 | 4.38 | 0.74 | 1.5 | 0.88 | 1.26 | 156.69 | 0.76 | 2.84 | 2.84 | 219.36 | 1.96 | 1.65 | 4.45 | 0.67
7 | COc1cc(C2CC(c3ccc(O)cc3O)=NN2C(=O)COc2ccccc2)ccc1OCC(=O)O (configuration not stated) | 7.65 | 3.66 | 5.58 | 0.55 | 1.5 | 1.12 | 1.92 | 150 | 0.76 | 2.74 | 2.74 | 279.19 | 1.69 | 2.12 | 4.11 | 0.66
8 | COc1cc(C2CC(c3ccc(Cl)cc3)=NN2C(=O)c2ccc(C)cc2)ccc1OCC(=O)O (configuration not stated) | 12.18 | 4.31 | 9.32 | 0.81 | 2.2 | 1.88 | 1.56 | 223.37 | 1.11 | 2.61 | 2.61 | 466.66 | 2.69 | 2.66 | 5.83 | 0.76
9 | COc1cc(C2CC(c3ccc(O)cc3)=NN2C(=O)c2ccc(Cl)cc2)ccc1OCC(=O)O (configuration not stated) | 5.21 | 1.95 | 3.66 | 0.45 | 0.9 | 0.74 | 0.87 | 89.28 | 0.45 | 2.84 | 2.84 | 183.45 | 0.95 | 0.56 | 2.5 | 0.46
10 | COc1ccc(C2=NN(C(=O)COc3ccccc3)C(c3ccc(OCC(=O)O)c(OC)c3)C2)cc1 (configuration not stated) | 5.41 | 2.62 | 3.8 | 0.54 | 1.8 | 0.76 | 1.92 | 180.63 | 0.91 | 2.84 | 2.84 | 190.49 | 1.38 | 1.35 | 5.13 | 0.96
11 | COc1cc(C2CC(c3ccc(Cl)cc3)=NN2C(=O)COc2ccc(C)cc2)ccc1OCC(=O)O (configuration not stated) | 8.15 | 3.13 | 5.68 | 1.32 | 2 | 1.14 | 2.61 | 197.55 | 1.01 | 2.86 | 2.86 | 284.96 | 1.68 | 1.87 | 5.65 | 1.36
12 | COc1ccc(C2=NN(C(=O)c3ccc(Cl)cc3)C(c3ccc(OCC(=O)O)c(OC)c3)C2)cc1 (configuration not stated) | 0.23 | 0.11 | 0.16 | 0.36 | 0.4 | 0.03 | 0.76 | 42.45 | 0.2 | 2.85 | 2.85 | 8.07 | 0.06 | 0.068 | 1.21 | 0.36
